This is an account of results in patent US20130059879A1, “Small Molecule Inhibitors of PFKFB3 and Glycolytic Flux and Their Methods of Use as Anti-Cancer Therapeutics” (UNIVERSITY OF LOUISVILLE RESEARCH FOUNDATION, INC., priority 2010, published 2013).

In one data set the test system is H209. As to the kind of experiment: Cell proliferation, MTT assay, 72 hours. The data set is classed as cell-based. Particulars: Homo sapiens, NCI-H209. How it is done: (§1) The ability of the compounds described herein to kill or inhibit the proliferation of cancer cells was measured using either the MTT assay, or the Alamar Blue assay, or the Cell Titer Glow® assay using 48 or 72 hours exposure. […] The procedures are briefly described below. Cells of the desired tumor cell line were plated at 2×10^5 cells/ml in 96 well plates. Twice the indicated concentrations of the compounds of the invention were added to cells the following day in an equal volume of media. 72 hours later, cells were lysed and subjected to ATP determination using the CellTiter Glo-Luminescent Cell Viability Assay kit (Promega, Madison, Wis.). Experiments were done in triplicate. When using the MTT assay or the Alamar blue assay, the experimental conditions are essentially similar; at the end of the incubation period, 20 microliters of the MTT solution is added per well and the samples are incubated for an additional four hours, rinsed, and the absorbance at 570 nm measured. […] Table 2 lists the IC50 values for the compounds of the invention in several cell lines including Jurkat, Calu-6, NCI-H82, U937, HCT-116, and MDA-MB-231 cancer cell lines.

Another data set deals with PC3. Description: Cell proliferation, MTT assay, 72 hours. As to conditions: Homo sapiens, PC-3. It is filed as cell-based. Here is the method:
as §1

In a further data set the test system is NCI-H82. Description: Cell proliferation, MTT assay, 72 hours. As to conditions: Homo sapiens. It is filed as cell-based. Here is the method: as §1
A further data set has as its system HT-29. As to the kind of experiment: Cell proliferation, MTT assay, 72 hours. It is filed as cell-based. Particulars: Homo sapiens, HT-29, MTT assay. How it is done:
as §1

A further data set concerns Jurkat. Description: Cell proliferation, MTT assay, 72 hours. The data set is classed as cell-based. As to conditions: Homo sapiens. How it is done: as §1
The subject of another data set is Hela. Description: Cell proliferation, MTT assay, 72 hours. The data set is classed as cell-based. Particulars: Homo sapiens. Here is the method: as §1
The next data set has as its system U937. As to the kind of experiment: Cell proliferation, MTT assay, 72 hours. The data set is classed as cell-based. Particulars: Homo sapiens, U-937. Here is the method: as §1
A further data set has as its system Hep G2. As to the kind of experiment: Cell proliferation, MTT assay, 72 hours. Particulars: Homo sapiens, HepG2. The data set is classed as cell-based. How it is done: as §1
Another data set has as its system HCT-116. As to the kind of experiment: Cell proliferation, MTT assay, 72 hours. The data set is classed as cell-based. Particulars: Homo sapiens, HCT-116, MTT assay. How it is done:
as §1

For the next data set, the system named is MDA-MB-231. As to the kind of experiment: Cell proliferation, MTT assay, 72 hours. As to conditions: Homo sapiens, MDA-MB-231, MTT assay. It is filed as cell-based. Here is the method: as §1
Another data set deals with Calu-6. Description: Cell proliferation, MTT assay, 72 hours. Particulars: Homo sapiens, Calu-6, MTT assay. It is filed as cell-based. Here is the method:
as §1

The next data set has as its system K562. Description: Cell proliferation, MTT assay, 72 hours. The data set is classed as cell-based. Particulars: Homo sapiens. How it is done: as §1
A further data set has as its system DU145. As to the kind of experiment: Cell proliferation, MTT assay, 72 hours. It is filed as cell-based. Particulars: Homo sapiens, DU-145. Here is the method: as §1
A short description of another data set: Pharmacokinetics in rats. It is filed as in vivo. Particulars: male Sprague Dawley rats. Here is the method:
(§2) The pharmacokinetic parameters for several compounds were determined in mice following IV (intravenous), IP (intraperitoneal), or PO (per os) administration, as well as in rats and dogs. A typical study design includes six Balbc male mice 7 to 8 weeks old. For instance, a dose of 10 mg/kg was administered IV using a 5% DMS0/90% Captisol (20% in water) solution or other pharmaceutically acceptable parenteral and oral formulations. Blood samples were collected at different intervals. Plasma samples were extracted and analyzed using an LC-MS/MS method. Similar protocols were used for the rats (Sprague Dawley rats) or dogs (beagles) PK studies; in the case of dogs PK studies, the number of animals per group was three.
(§3) PFK-065 was dosed at 10 mg/kg in male Balbc mice; PFK-095 was dosed at 10 mg/kg in male Sprague Dawley rats; and PFK-112 dosed at 6 mg/kg in male beagle dogs.

Another data set in a line: Pharmacokinetics in dogs. The data set is classed as in vivo. As to conditions: male beagle dogs. How it is done:
as §2, §3

The next data set deals with BX-PC-3. Description: Cell proliferation, MTT assay, 48 hours. It is filed as cell-based. As to conditions: Homo sapiens, BXPC-3, BX-PC-3, MTT assay. Here is the method: as §1
The subject of a further data set is MiaPaca. Description: Cell proliferation, MTT assay, 48 hours. It is filed as cell-based. Particulars: Homo sapiens, MIA PaCa-2. Here is the method: as §1
The test system of the next data set is BT474. As to the kind of experiment: Cell proliferation, MTT assay, 48 hours. As to conditions: Homo sapiens, BT-474. It is filed as cell-based. How it is done:
as §1

The next data set concerns U87MG. Description: Cell proliferation, MTT assay, 48 hours. The data set is classed as cell-based. Particulars: Homo sapiens, U-87 MG. Here is the method: as §1
Another data set concerns LnCap. As to the kind of experiment: Cell proliferation, MTT assay, 48 hours. It is filed as cell-based. Particulars: Homo sapiens. How it is done: as §1
For another data set, the system named is SK-BR-3. As to the kind of experiment: Cell proliferation, MTT assay, 48 hours. The data set is classed as cell-based. Particulars: Homo sapiens, SK-BR-3, MTT assay. Here is the method: as §1
The test system of a further data set is CT26. As to the kind of experiment: Cell proliferation, MTT assay, 48 hours. It is filed as cell-based. Particulars: Mus musculus. How it is done:
as §1

Another data set deals with SK-N-SH. As to the kind of experiment: Cell proliferation, MTT assay, 48 hours. It is filed as cell-based. Particulars: Homo sapiens. Here is the method: as §1
The test system of another data set is A549. As to the kind of experiment: Cell proliferation, MTT assay, 48 hours. Particulars: Homo sapiens. It is filed as cell-based. How it is done:
as §1

SMILES strings stand for the structures.

Consider `O=C(c1ccncc1)c1cc2c(ccc3ccccc32)[nH]1` [ACT-PFK-095, (3H-Benzo[e]indol-2-yl)-pyridin-4-yl-methanone], for which the IC50 in the data set on H209 was found to be 190 nM; with PC3, 950 nM; in the data set on NCI-H82, 180 nM; with HT-29, 450 nM; in the data set on Jurkat it was 4650 nM; in the data set with Hela, 9100 nM. Besides, the IC50 in the data set on U937 stood at 50 nM; in the data set with Hep G2, 5500 nM; with HCT-116 it was 510 nM; in the data set with MDA-MB-231, 24900 nM; in the data set on Calu-6 it was 140 nM; in the data set on K562, 210 nM. The compound further returned an IC50 in the data set with DU145 of 940 nM. Moreover, the Cmax in “Pharmacokinetics in rats” (IV 10 mg/kg) is 16932 ng/mL. Further, the T1/2b in “Pharmacokinetics in rats” (IV 10 mg/kg) is recorded as 5.5 h. In “Pharmacokinetics in rats” (IV 10 mg/kg), the Vd amounted to 2.5 L/kg. In addition, in “Pharmacokinetics in rats” (oral bioavailability, PO 10 mg/kg), the “% F (from PO group)” value is 38%. Further, the AUC(0-inf) in the data set “Pharmacokinetics in rats” (rat, plasma, IV 10 mg/kg) amounted to 1290 ng·h/mL.

`Nc1ccc(C(=O)c2cc3c(ccc4ccccc43)[nH]2)cc1` [ACT-PFK-112, (4-Amino-phenyl)-(3H-benzo[e]indol-2-yl)-methanone] yielded a T1/2b in the data set “Pharmacokinetics in dogs” (IV 6 mg/kg) of 5.8 h. The compound also gave an AUC(0-inf) in the data set “Pharmacokinetics in dogs” (dog, plasma, IV 6 mg/kg) of 5070 ng·h/mL. The compound also showed a Cmax in “Pharmacokinetics in dogs” (dog, plasma, IV 6 mg/kg) of 5060 ng/mL. The compound also came in with a Vd in the data set “Pharmacokinetics in dogs” (dog, plasma, IV 6 mg/kg) of 1.8 L/kg. Besides, the “% F (from PO group)” value in the data set “Pharmacokinetics in dogs” (oral bioavailability, PO 24 mg/kg vs IV 6 mg/kg) was found to be 95%. Moreover, the IC50 was found to be 135 nM in the data set on BX-PC-3; 154 nM in the data set with MiaPaca; 1370 nM with BT474; 3790 nM with U87MG; 1030 nM with LnCap; 1110 nM with SK-BR-3. The IC50 was determined as 1950 nM in the data set on CT26, 305 nM in the data set on SK-N-SH and 822 nM with A549.
